According to patent US20260008780A1, “SUBSTITUTED 3,4-DIHYDROISOQUINOLIN-1(2H)-ONE DERIVATIVES AND RELATED USES” (NodThera Limited, priority 2022, published 2026):

system: IL-1β release upon NLRP3 activation in peripheral blood mononuclear cells (PBMC); assay: PBMC IC50 Determination Assay; type: cell-based; conditions: Homo sapiens; PBMC from buffy coats, LPS 3 h, compound 30 min, then ATP (5 mM) or nigericin (10 μM) 1 h; IL-1β in media by ELISA (Protocol A) or HTRF (Protocol B)
Procedure: The compounds of the present disclosure were tested for their inhibitory activity against IL-1β release upon NLRP3 activation in peripheral blood mononuclear cells (PBMC).
Protocol A. PBMC were isolated from buffy coats by density gradient centrifugation on Histopaque-1077 (Sigma, cat no. 10771). Isolated cells were seeded into the wells of a 96-well plate and incubated for 3 h with lipopolysaccharide (LPS). Following medium exchange, the compounds of the present disclosure were added (a single compound per well) and the cells were incubated for 30 min. Next, the cells were stimulated either with ATP (5 mM) or nigericin (10 μM) for 1 h and the cell culture media from the wells were collected for further analysis.
The release of IL-1β into the media was determined by a quantitative detection of IL-1β in the media using an IL-1p enzyme-linked immunosorbent assay (ELISA) Ready-SET-Go!, eBioscience cat. No. 88-7261-88. Briefly, in a first step, high affinity binding plates (Corning, Costar 9018 or NUNC Maxisorp Cat No. 44-2404) were coated overnight at 4° C. with specific capture antibody included in the kit (anti-human IL-1β ref 14-7018-68). Subsequently, plates were blocked with blocking buffer for 1 h at room temperature (rt) and after washing with a buffer (PBS with 0.05% Tween-20) incubated with protein standard and culture media. After 2 h of incubation at rt, plates were washed and incubated with biotinylated detection antibody included in the kit (anti-human IL-1β Biotin ref. 33-7110-68) for 1 h at rt. Plates were washed and incubated with HRP-streptavidin for 30 min at rt and washed again. The signal was developed after addition of 3,3′,5,5′-tetramethylbenzidine-peroxidase (TMB) until colour appeared and the reaction was stopped by 2 M H2SO4. A microplate spectrophotometer (BioTek) was used to detect signals with 450 nm. The detection range of IL-1β ELISA was […].
Protocol B. PBMC were isolated from buffy coats by density gradient centrifugation on Histopaque-1077 (Sigma, cat no. 10771). Isolated cells were seeded into the wells (280,000 cells/well) of a 96-well plate and incubated for 3 h with lipopolysaccharide (LPS, 1 μg/mL diluted 1000× from a 1 mg/mL stock solution). The compounds of the present disclosure were added (a single compound per well) and the cells were incubated for 30 min. Next, the cells were stimulated with ATP (5 mM final concentration diluted 20× from a 100 mM stock solution) for 1 h and the cell culture media from the wells were collected for further analysis.
The release of IL-1β into the media was determined by quantitative detection of IL-1β in the media using HTRF®, CisBio cat. No. 62HIL1BPEH. Briefly, cell culture supernatant were dispensed directly into the assay plate containing antibodies labelled with the HTRF® donor and acceptor. A microplate spectrophotometer (BMG) was used to detect signals at 655 nm and 620 nm. The detection range of IL-1β HTRF® was 39-6500 μg/mL.

| SMILES | IC50 [µM] |
| --- | --- |
| CCc1cc2c(s1)C(=O)N(CC(=O)Nc1ccc3nncn3n1)CC21CC1 [Compound 45, 2-{2′-Ethyl-7′-oxo-6′,7′-dihydro-5′H-spiro[cyclopropane-1,4′-thieno[2,3-c]pyridin]-6′-yl}-N-{[1,2,4]triazolo[4,3-b]pyridazin-6-yl}acetamide] | 0.1 to 1 |
| CCc1cc2c(s1)C(=O)N(CC(=O)Nc1ncco1)CC21CC1 [Compound 46, 2-{2′-Ethyl-7′-oxo-6′,7′-dihydro-5′H-spiro[cyclopropane-1,4′-thieno[2,3-c]pyridin]-6′-yl}-N-(1,3-oxazol-2-yl)acetamide] | 0.1 to 1 |
| CCc1cc2c(s1)C(=O)N(CC(=O)Nc1ccc3nncn3c1)CC21CC1 [Compound 47, 2-{2′-Ethyl-7′-oxo-6′,7′-dihydro-5′H-spiro[cyclopropane-1,4′-thieno[2,3-c]pyridin]-6′-yl}-N-{[1,2,4]triazolo[4,3-a]pyridin-6-yl}acetamide] | 1 to 3 |
| CCc1cc2c(s1)C(=O)N(CC(=O)Nc1ccc(OC)nc1)CC21CC1 [Compound 48, 2-{2′-Ethyl-7′-oxo-6′,7′-dihydro-5′H-spiro[cyclopropane-1,4′-thieno[2,3-c]pyridin]-6′-yl}-N-(6-methoxypyridin-3-yl)acetamide] | 3 to 10 |
| CCc1cc2c(s1)C(=O)N(CC(=O)Nc1ccc3[nH]c(=O)n(C)c3c1)CC21CC1 [Compound 49, 2-{2′-Ethyl-7′-oxo-6′,7′-dihydro-5′H-spiro[cyclopropane-1,4′-thieno[2,3-c]pyridin]-6′-yl}-N-(3-methyl-2-oxo-2,3-dihydro-1H-1,3-benzodiazol-5-yl)acetamide] | 3 to 10 |
| CCc1cc2c(s1)C(=O)N(CC(=O)Nc1ccncn1)CC21CC1 [Compound 50, 2-{2′-Ethyl-7′-oxo-6′,7′-dihydro-5′H-spiro[cyclopropane-1,4′-thieno[2,3-c]pyridin]-6′-yl}-N-(pyrimidin-4-yl)acetamide] | 0.1 to 1 |
| CCc1cc2c(s1)C(=O)N(CC(=O)Nc1nccc(=O)[nH]1)CC21CC1 [Compound 51, 2-{2′-Ethyl-7′-oxo-6′,7′-dihydro-5′H-spiro[cyclopropane-1,4′-thieno[2,3-c]pyridin]-6′-yl}-N-(6-oxo-1,6-dihydropyrimidin-2-yl)acetamide] | 3 to 10 |
| CCc1cc2c(s1)C(=O)N(CC(=O)Nc1ncc(-n3cccn3)cn1)CC21CC1 [Compound 52, 2-{2′-Ethyl-7′-oxo-6′,7′-dihydro-5′H-spiro[cyclopropane-1,4′-thieno[2,3-c]pyridin]-6′-yl}-N-[5-(1H-pyrazol-1-yl)pyrimidin-2-yl]acetamide] | 1 to 3 |
| CCc1cc2c(s1)C(=O)N(CC(=O)Nc1ncc([N+](=O)[O-])cn1)CC21CC1 [Compound 53, 2-{2′-Ethyl-7′-oxo-6′,7′-dihydro-5′H-spiro[cyclopropane-1,4′-thieno[2,3-c]pyridin]-6′-yl}-N-(5-nitropyrimidin-2-yl)acetamide] | 0.1 to 1 |
| CCc1cc2c(s1)C(=O)N(CC(=O)Nc1ncc(Cl)cn1)CC21CC1 [Compound 54, N-(5-Chloropyrimidin-2-yl)-2-{2′-ethyl-7′-oxo-6′,7′-dihydro-5′H-spiro[cyclopropane-1,4′-thieno[2,3-c]pyridin]-6′-yl}acetamide] | 0.1 to 1 |
| CCc1cc2c(s1)C(=O)N(CC(=O)Nc1ccc(C#N)cn1)CC21CC1 [Compound 55, N-(5-Cyanopyridin-2-yl)-2-{2′-ethyl-7′-oxo-6′,7′-dihydro-5′H-spiro[cyclopropane-1,4′-thieno[2,3-c]pyridin]-6′-yl}acetamide] | 1 to 3 |
| CCc1cc2c(s1)C(=O)N(CC(=O)Nc1ncc(C(F)(F)F)cc1F)CC21CC1 [Compound 56, 2-{2′-Ethyl-7′-oxo-6′,7′-dihydro-5′H-spiro[cyclopropane-1,4′-thieno[2,3-c]pyridin]-6′-yl}-N-[3-fluoro-5-(trifluoromethyl)pyridin-2-yl]acetamide] | 1 to 3 |
| CCc1cc2c(s1)C(=O)N(CC(=O)Nc1ncc(Cl)cc1F)CC21CC1 [Compound 57, N-(5-Chloro-3-fluoropyridin-2-yl)-2-{2′-ethyl-7′-oxo-6′,7′-dihydro-5′H-spiro[cyclopropane-1,4′-thieno[2,3-c]pyridin]-6′-yl}acetamide] | 1 to 3 |
| O=C(CN1CC2(CC2)c2oc(C3CC3)cc2C1=O)Nc1ccc2nncn2c1 [Compound 58, 2-{2′-Cyclopropyl-4′-oxo-5′,6′-dihydro-4′H-spiro[cyclopropane-1,7′-furo[3,2-c]pyridin]-5′-y}—N-{[1,2,4]triazolo[4,3-a]pyridin-6-yl}acetamide] | 3 to 10 |
| O=C(CN1CC2(CC2)c2oc(C3CC3)cc2C1=O)Nc1ccc2nncn2n1 [Compound 59, 2-{2′-Cyclopropyl-4′-oxo-5′,6′-dihydro-4′H-spiro[cyclopropane-1,7′-furo[3,2-c]pyridin]-5′-yl}-N-{[1,2,4]triazolo[4,3-b]pyridazin-6-yl}acetamide] | 0.1 to 1 |
| CCc1cc2c(s1)C(=O)N(CC(=O)Nc1ncc(N)cn1)CC21CC1 [Compound 60, N-(5-Aminopyrimidin-2-yl)-2-{2′-ethyl-7′-oxo-6′,7′-dihydro-5′H-spiro[cyclopropane-1,4′-thieno[2,3-c]pyridin]-6′-yl}acetamide] | 0.1 to 1 |
| CCc1cc2c(s1)C(=O)N(CC(=O)Nc1ncc(OC)cn1)CC21CC1 [Compound 61, 2-{2′-Ethyl-7′-oxo-6′,7′-dihydro-5′H-spiro[cyclopropane-1,4′-thieno[2,3-c]pyridin]-6′-yl}-N-(5-methoxypyrimidin-2-yl)acetamide] | 0.1 to 1 |
| CCc1cc2c(s1)C(=O)N(CC(=O)Nc1ncc(O)cn1)CC21CC1 [Compound 62, 2-{2′-Ethyl-7′-oxo-6′,7′-dihydro-5′H-spiro[cyclopropane-1,4′-thieno[2,3-c]pyridin]-6′-yl}-N-(5-hydroxypyrimidin-2-yl)acetamide] | 0.1 to 1 |
| CCc1cc2c(s1)C(=O)N(CC(=O)Nc1ncc(C#N)cn1)CC21CC1 [Compound 63, N-(5-Cyanopyrimidin-2-yl)-2-{2′-ethyl-7′-oxo-6′,7′-dihydro-5′H-spiro[cyclopropane-1,4′-thieno[2,3-c]pyridin]-6′-yl}acetamide] | 0.1 to 1 |
| CC1CN(CC(=O)Nc2ncccn2)C(=O)c2cc(C3CC3)oc21 (stereo not drawn) [Compound 65, 2-(2-Cyclopropyl-7-methyl-4-oxo-6,7-dihydrofuro[3,2-c]pyridin-5(4H)-yl)-N-(pyrimidin-2-yl)acetamide] | 0.1 to 1 |
| CCc1cc2c(s1)C(=O)N(CC(=O)Nc1ncc(C#N)cc1F)CC21CC1 [Compound 66, N-(5-cyano-3-fluoropyridin-2-yl)-2-(2′-ethyl-7′-oxo-5′H-spiro[cyclopropane-1,4′-thieno[2,3-c]pyridin]-6′(7′H)-yl)acetamide] | 0.1 to 1 |
| CC1CN(CC(=O)Nc2ncccn2)C(=O)c2cc3scnc3n21 (stereo not drawn) [Compound 67, 2-(5-Methyl-8-oxo-5,6-dihydrothiazolo[5′,4′:4,5]pyrrolo[1,2-a]pyrazin-7(8H)-yl)-N-(pyrimidin-2-yl)acetamide] | 0.1 to 1 |
| CCc1cc2c(s1)C(=O)N(CC(=O)Nc1ncc3[nH]c(=O)n(C)c3n1)CC21CC1 [Compound 68, 2-(2′-Ethyl-7′-oxo-5′H-spiro[cyclopropane-1,4′-thieno[2,3-c]pyridin]-6′(7′H)-yl)-N-(9-methyl-8-oxo-8,9-dihydro-7H-purin-2-yl)acetamide] | 3 to 10 |
| CCc1cc2c(s1)C(C)CN(CC(=O)Nc1ncccn1)C2=O (stereo not drawn) [Compound 69] | 1 to 3 |
| CC1CN(CC(=O)Nc2ncccn2)C(=O)c2cc(C3CC3)sc21 (stereo not drawn) [Compound 70, 2-(2-Cyclopropyl-7-methyl-4-oxo-6,7-dihydrothieno[3,2-c]pyridin-5(4H)-yl)-N-(pyrimidin-2-yl)acetamide] | 3 to 10 |
| CCc1cc2c(s1)C(=O)N(CC(=O)Nc1ncc3c(n1)[nH]c(=O)n3C)CC21CC1 [Compound 71, 2-(2′-Ethyl-7′-oxo-5′H-spiro[cyclopropane-1,4′-thieno[2,3-c]pyridin]-6′(7′H)-yl)-N-(7-methyl-8-oxo-8,9-dihydro-7H-purin-2-yl)acetamide] | 1 to 3 |
| CNc1nc2c(s1)C(=O)N(CC(=O)Nc1ncccn1)CC21CC1 [Compound 72, 2-(2′-(Methylamino)-4′-oxo-4′H-spiro[cyclopropane-1,7′-thiazolo[5,4-c]pyridin]-5′(6′H)-yl)-N-(pyrimidin-2-yl)acetamide] | 3 to 10 |
